Values of other authors as cited in patent publication US9809617B2, “Crystal form of regadenoson and preparation method thereof” (Shanghai Ziyuan Pharmaceutical Co., Ltd., priority 2015, dated 2017).

Settings: heat / humidity, as described for U.S. Pat. No. 7,732,595

Row | Structure (SMILES) | stability of crystal form (in words)
1 | CCNC(=O)c1cnn(-c2nc(N)c3ncn(C4O[C@H](CO)[C@@H](O)[C@H]4O)c3n2)c1 (stereo partly drawn) [Crystal form A] | stable under heating under relative humidity stress conditions up to its melting point
2 | CCNC(=O)c1cnn(-c2nc(N)c3ncn(C4O[C@H](CO)[C@@H](O)[C@H]4O)c3n2)c1 (stereo partly drawn) [amorphous form of regadenoson] | unstable in atmospheric moisture
3 | CCNC(=O)c1cnn(-c2nc(N)c3ncn(C4O[C@H](CO)[C@@H](O)[C@H]4O)c3n2)c1 (stereo partly drawn) [crystal form C] | unstable after losing crystal water under a high temperature
